Experiment: Time to complete dissolution of compressed tablets of bulking agents/compression binders in water
Type: physicochemical
Conditions: 750 mg tablet, 12 mm diameter, pressed at 32 kN, 1.5 L water in 2 L beaker, room temperature (69° F.)
Text: To compare the speed of dissolution of any ingredients acting as a binder and/or bulking agent to the speed of dissolution of isomalt, a tablet can be formed of each and the time of dissolution for each can be measured. As used herein, the term “rate of dissolution” when comparing one or more binder and bulking agent ingredients to isomalt refers to the following procedure. The tablets should have the same diameter, shape, and weight and should be prepared by pressing with the same compression force (e.g., 32 kN) using a tablet press. Two equal beakers (e.g., 2 L) each containing an equal amount of distilled water (e.g., 1.5 L) and each at the same room temperature (i.e., at 69° F.) and atmospheric pressure are prepared. One tablet containing isomalt (commercially available FCC or USP grade isomalt particles) is placed in one of the beakers of water. The other tablet formed of the test binder and/or bulking agent are placed in the other of the beakers of water. The two beakers are then visually observed to determine which of the tablets dissolves completely first.
To identify suitable bulking agents and compression binders that dissolve quickly enough to allow suitable release of the preferred amount of antacid particles having low solubility in saliva, tablets of equal diameter (12 mm) and a weight of 750 mg±4 mg were made with commercially available particles of the bulking agents and/or compression binders listed in the table below, each compressed using a tablet press by placing the ingredients in a die and pressing with an equal pressure of 32 kN±3 kN to form the tablets. The tablets were simultaneously placed in equal size beakers (2 L) each containing an equal amount of water (1.5 L±15 mL) at room temperature (69° F.) and the time to complete dissolution was measured for each tablet. The dissolution times are shown below.

Dissolution time	Compound
29 min	OC[C@@H](O)[C@@H](O[C@H]1O[C@H](CO)[C@@H](O)[C@H](O)[C@H]1O)[C@H](O)[C@@H](O)CO [Maltitol]
50 min	OC[C@@H](O)[C@@H](O)[C@H](O)[C@H](O)CO [Mannitol]
20 min	OC[C@@H](O)[C@@H](O)[C@H](O)[C@@H](O)CO [Sorbitol]
38 min	Isomalt

— patent US12485089B1, “Adhering lozenge with high amount of sparsely soluble active ingredient” (Quest Products, LLC, priority 2025, dated 2025)
